The results in this text go back to PubChem BioAssay AID256 (DTP/NCI, 2004).

The assay has as its system CD2F1 mice, L1210 leukemia ip, survival T/C. The assay is described as follows: NCI In Vivo Anticancer Drug Screen. Data for tumor model L1210 Leukemia (intraperitoneal) in CD2F1 (CDF1) mice. The note with it: higher = longer survival. In outline:
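Implant tumor; dose compound or vehicle; measure endpoint in both groups; report treated divided by control.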

Setting [1] is: endpoint: mean survival time, dose: 100.0 mg/kg/injection, schedule: Q04DX002 (ip), vehicle: saline with Tween-80.
Where [2] appears, read: endpoint: mean survival time, dose: 200.0 mg/kg/injection, schedule: Q01DX001 (ip), vehicle: saline with Tween-80.
Where [3] appears, read: endpoint: mean survival time, dose: 200.0 mg/kg/injection, schedule: Q04DX002 (ip), vehicle: saline with Tween-80.
[4] abbreviates: endpoint: mean survival time, dose: 100.0 mg/kg/injection, schedule: Q04DX003 (ip), vehicle: saline.
The mark [5] stands for this setting: endpoint: mean survival time, dose: 200.0 mg/kg/injection, schedule: Q04DX003 (ip), vehicle: saline.
Setting [6] is: endpoint: mean survival time, dose: 400.0 mg/kg/injection, schedule: Q04DX003 (ip), vehicle: saline.
[7] abbreviates: endpoint: mean survival time, dose: 100.0 mg/kg/injection, schedule: Q04DX003 (ip), vehicle: saline with Tween-80.
The mark [8] stands for this setting: endpoint: mean survival time, dose: 200.0 mg/kg/injection, schedule: Q04DX003 (ip), vehicle: saline with Tween-80.
[9] abbreviates: endpoint: mean survival time, dose: 400.0 mg/kg/injection, schedule: Q04DX003 (ip), vehicle: saline with Tween-80.
The mark [10] stands for this setting: endpoint: mean survival time, dose: 50.0 mg/kg/injection, schedule: Q04DX003 (ip), vehicle: saline.
Where [11] appears, read: endpoint: mean survival time, dose: 100.0 mg/kg/injection, schedule: Q01DX009 (ip), vehicle: saline with Tween-80.
[12] abbreviates: endpoint: mean survival time, dose: 200.0 mg/kg/injection, schedule: Q01DX009 (ip), vehicle: saline with Tween-80.
Where [13] appears, read: endpoint: mean survival time, dose: 400.0 mg/kg/injection, schedule: Q01DX009 (ip), vehicle: saline with Tween-80.
Where [14] appears, read: endpoint: mean survival time, dose: 6.25 mg/kg/injection, schedule: Q01DX009 (ip), vehicle: saline with Tween-80.
Where [15] appears, read: endpoint: mean survival time, dose: 400.0 mg/kg/injection, schedule: Q04DX002 (ip), vehicle: saline with Tween-80.

Each structure is given as a SMILES string. Values joined by “and” are separate entries in the source; they are usually repeats but may differ in a detail not shown here. Equal entries are not always repeated. Toxic doses and inconclusive results are not listed.

For the compound `CC[C@@]1(O)C(=O)OCc2c1cc1n(c2=O)Cc2cc3ccccc3nc2-1`, the T/C (endpoint: mean survival time, dose: 0.78 mg/kg/injection, schedule: Q04DX003 (ip), vehicle: water) is 120 % of control; the T/C (endpoint: mean survival time, dose: 1.56 mg/kg/injection, schedule: Q04DX003 (ip), vehicle: water) was 156 % of control; the T/C (endpoint: mean survival time, dose: 3.13 mg/kg/injection, schedule: Q04DX003 (ip), vehicle: other) was 159 % of control; the T/C (endpoint: mean survival time, dose: 3.13 mg/kg/injection, schedule: Q04DX003 (ip), vehicle: water) is 156 % of control; the T/C (endpoint: mean survival time, dose: 6.25 mg/kg/injection, schedule: Q04DX003 (ip), vehicle: other) was 124 % of control; the T/C (endpoint: mean survival time, dose: 12.5 mg/kg/injection, schedule: Q04DX003 (ip), vehicle: water) is 95 % of control. Moreover, where the note is “endpoint: mean survival time, dose: 25.0 mg/kg/injection, schedule: Q04DX003 (ip), vehicle: other”, the T/C is 119 % of control.

Turning to `NC(=O)c1c[n+](Cc2ccccc2)ccn1`, the T/C (endpoint: mean survival time, dose: 75.0 mg/kg/injection, schedule: Q01DX001 (ip), vehicle: saline) was 104 % of control.

As to `CC1SC(=Nc2ccc(S(N)(=O)=O)cc2)NC1=O` (configuration not stated), the T/C is, setting by setting: (endpoint: mean survival time, dose: 50.0 mg/kg/injection, schedule: Q04DX002 (ip), vehicle: saline with Tween-80) 105 % of control; under setting [1], 105 % of control; under setting [2], 89 % of control; under setting [3], 102 % of control.

`COCCNP(=O)(OC(C)C)OC(C)C`: the T/C by setting is: under setting [4], 100 % of control; under setting [5], 97 % of control; under setting [6], 101 % of control.

On to `CC1=C(Br)C(=O)C(C(O)(C(F)(F)F)C(F)(F)F)C(C)(C)C1` (configuration not stated), for which the T/C is 96 % of control under setting [7] and 96 % of control under setting [8].

As for `O=C(NC(COCc1ccccc1)C(=O)O)OCc1ccccc1` (configuration not stated), the T/C was 88 % of control under setting [7], 92 % of control under setting [8] and 100 % of control under setting [9].

With `Brc1ccc(C[N+]23CCN(CC2)CC3)cc1`, the T/C by setting is: (endpoint: mean survival time, dose: 12.5 mg/kg/injection, schedule: Q04DX003 (ip), vehicle: saline) 98 % of control and 111 % of control; (endpoint: mean survival time, dose: 25.0 mg/kg/injection, schedule: Q04DX003 (ip), vehicle: saline) 93 % of control and 100 % of control; under setting [10], 95 % of control and 103 % of control.

In the case of `CC(=O)N(c1c(F)c(F)cc(F)c1F)c1c(F)c(F)cc(F)c1F`, the T/C reads like this: under setting [11], 95 % of control; under setting [7], 104 % of control; under setting [12], 103 % of control; under setting [8], 102 % of control; under setting [13], 95 % of control; under setting [9], 98 % of control.

On to `O=C1CC(C(=O)O)C2(CCCCCC2)O1` (configuration not stated), for which the T/C (endpoint: median survival time, dose: 12.5 mg/kg/injection, schedule: Q04DX003 (ip), vehicle: saline with Tween-80) is 90 % of control; the T/C (endpoint: median survival time, dose: 25.0 mg/kg/injection, schedule: Q04DX003 (ip), vehicle: saline with Tween-80) is 90 % of control; the T/C (endpoint: median survival time, dose: 50.0 mg/kg/injection, schedule: Q04DX003 (ip), vehicle: saline with Tween-80) is 100 % of control.

Turning to `CCCCCCCCCCCCCCCC1=NC(C)(C)CN1C(C)C`, the T/C was 95 % of control (endpoint: mean survival time, dose: 1.25 mg/kg/injection, schedule: Q01DX009 (ip), vehicle: saline with Tween-80); 102 % of control (endpoint: mean survival time, dose: 2.5 mg/kg/injection, schedule: Q01DX009 (ip), vehicle: saline with Tween-80); 98 % of control (endpoint: mean survival time, dose: 5.0 mg/kg/injection, schedule: Q01DX009 (ip), vehicle: saline with Tween-80).

In the case of `COc1ccc(/C=N/NC(=O)CNC(=O)c2ccccc2)cc1`, the T/C is, setting by setting: under setting [11], 92 % of control; under setting [13], 88 % of control.

For the compound `CS(=O)(=O)OC1CCCCC1c1ccccc1` (configuration not stated), the T/C was 103 % of control (endpoint: mean survival time, dose: 100.0 mg/kg/injection, schedule: Q01DX001 (ip), vehicle: carboxymethylcellulose (CMC)); 103 % of control (endpoint: mean survival time, dose: 200.0 mg/kg/injection, schedule: Q01DX001 (ip), vehicle: carboxymethylcellulose (CMC)); 101 % of control (endpoint: mean survival time, dose: 400.0 mg/kg/injection, schedule: Q01DX001 (ip), vehicle: carboxymethylcellulose (CMC)).

On to `CC(C)(C)[Si](C)(C)OP(=O)(O[Si](C)(C)C(C)(C)C)N(CCCl)CCCl`, for which the T/C by setting is: (endpoint: mean survival time, dose: 15.63 mg/kg/injection, schedule: Q01DX001 (ip), vehicle: distilled water + Tween-80) 97 % of control; (endpoint: mean survival time, dose: 31.3 mg/kg/injection, schedule: Q01DX001 (ip), vehicle: distilled water + Tween-80) 103 % of control; (endpoint: mean survival time, dose: 62.5 mg/kg/injection, schedule: Q01DX001 (ip), vehicle: distilled water + Tween-80) 106 % of control; (endpoint: mean survival time, dose: 125.0 mg/kg/injection, schedule: Q01DX001 (ip), vehicle: distilled water + Tween-80) 105 % of control; (endpoint: mean survival time, dose: 250.0 mg/kg/injection, schedule: Q01DX001 (ip), vehicle: distilled water + Tween-80) 101 % of control; (endpoint: mean survival time, dose: 500.0 mg/kg/injection, schedule: Q01DX001 (ip), vehicle: distilled water + Tween-80) 109 % of control.

For the compound `COc1ccc2c(c1)c(C#N)cc[n+]2C`, the T/C under setting [14] was 100 % of control; the T/C (endpoint: mean survival time, dose: 12.5 mg/kg/injection, schedule: Q01DX009 (ip), vehicle: saline with Tween-80) is 110 % of control; the T/C (endpoint: mean survival time, dose: 12.5 mg/kg/injection, schedule: Q04DX003 (ip), vehicle: saline with Tween-80) is 100 % of control; the T/C (endpoint: mean survival time, dose: 25.0 mg/kg/injection, schedule: Q04DX003 (ip), vehicle: saline with Tween-80) was 91 % of control.

`CC1(C)N=C(N)N=C(N)N1c1ccc(OCCOc2ccc(NC(=O)CBr)cc2)cc1`: the T/C runs as follows: (endpoint: mean survival time, dose: 176.0 mg/kg/injection, schedule: Q01DX006 (ip), vehicle: other) 118 % of control; (endpoint: mean survival time, dose: 266.0 mg/kg/injection, schedule: Q01DX006 (ip), vehicle: other) 124 % of control; (endpoint: mean survival time, dose: 600.0 mg/kg/injection, schedule: Q01DX006 (ip), vehicle: other) 94 % of control.

Turning to `CC(CCC(=O)O)C1CCC2C3CCC4CCCCC4(C)C3CCC12C` (configuration not stated), the T/C runs as follows: (endpoint: mean survival time, dose: 100.0 mg/kg/injection, schedule: Q01DX001 (ip), vehicle: saline with Tween-80) 98 % of control; under setting [2], 93 % of control; (endpoint: mean survival time, dose: 400.0 mg/kg/injection, schedule: Q01DX001 (ip), vehicle: saline with Tween-80) 92 % of control.

Turning to `CC(=O)Nc1ccc2ccccc2c1`, the T/C runs as follows: under setting [7], 103 % of control; under setting [8], 93 % of control; under setting [9], 104 % of control.

Regarding `Cc1cc(C)c(N2C(=O)C=CC2=O)c(C)c1`, under setting [14], the T/C is 94 % of control.

For the compound `Cc1cc(=O)[nH]c(-c2ccccc2)c1C(=O)O`, the T/C is 95 % of control under setting [1], 95 % of control under setting [3] and 95 % of control under setting [15].

With `OC(c1ccccc1)(c1ccccc1)c1nc2ccccc2o1`, the T/C is, setting by setting: under setting [11], 107 % of control; under setting [7], 96 % of control; under setting [12], 100 % of control; under setting [8], 91 % of control; under setting [9], 95 % of control.

For `Nc1nc(N)c2nc(NCc3ccc(C(=O)NC(CCC(=O)O)C(=O)O)cc3)cnc2n1` (configuration not stated), the T/C (endpoint: mean survival time, dose: 50.0 mg/kg/injection, schedule: Q01DX009 (ip), vehicle: saline) is 103 % of control; the T/C under setting [10] is 97 % of control; the T/C (endpoint: mean survival time, dose: 100.0 mg/kg/injection, schedule: Q01DX009 (ip), vehicle: saline) is 103 % of control; the T/C under setting [4] is 96 % of control; the T/C (endpoint: mean survival time, dose: 200.0 mg/kg/injection, schedule: Q01DX009 (ip), vehicle: saline) is 116 % of control; the T/C under setting [5] is 96 % of control. Also, the T/C under setting [6] is 100 % of control.

For `Cc1ccc(NC(=O)COc2cc(Cl)c(Cl)cc2Cl)cc1C`, the T/C by setting is: under setting [7], 102 % of control; under setting [8], 93 % of control; under setting [9], 96 % of control.

With `CC(=O)NC(Cc1cc(I)c(OC(C)=O)c(I)c1)C(=O)O` (configuration not stated), the T/C (endpoint: mean survival time, dose: 50.0 mg/kg/injection, schedule: Q01DX009 (ip), vehicle: saline with Tween-80) was 93 % of control; the T/C (endpoint: mean survival time, dose: 50.0 mg/kg/injection, schedule: Q04DX003 (ip), vehicle: saline with Tween-80) is 101 % of control; the T/C under setting [11] was 93 % of control; the T/C under setting [7] is 95 % of control; the T/C under setting [12] is 93 % of control; the T/C under setting [8] was 97 % of control.

On to `C/C(=N\NS(=O)(=O)c1ccc(C)cc1)c1ccccc1`, for which the T/C runs as follows: under setting [1], 108 % of control; under setting [3], 96 % of control; under setting [15], 103 % of control.
